Experimental data as given in article PMC12136037, “Type II kinase inhibitors that target Parkinson’s disease–associated LRRK2” (Science Advances, 2025).

Experiments:
Assay in all cases: DSF 100 kinase selectivity screen;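 further: compound tested at 20 µM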
Assay type in all cases: binding
[1] = molecular target: T1, ~100 representative kinases (Homo sapiens, UniProt P49841); conditions: protein GSK3B; average of three replicates
T1 construct: Recombinant protein kinase domains with a concentration of 2 μM
Procedure, shortened: (§1)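 Each kinase domain, at 2 μM, is mixed with 20 μM test compound and SYPRO Orange in Hepes (20 mM, pH 7.5) with 500 mM NaCl. Temperature is then raised at 3°C/min and fluorescence-monitored unfolding yields the melting temperature change, ΔTm in degrees Celsius.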

[2] = molecular target: T2, ~100 representative kinases (Homo sapiens, UniProt O94768); conditions: Protein STK17B; DSF; average of three replicates
T2 construct: Recombinant protein kinase domains with a concentration of 2 μM
T2 sequence (O94768 1-372): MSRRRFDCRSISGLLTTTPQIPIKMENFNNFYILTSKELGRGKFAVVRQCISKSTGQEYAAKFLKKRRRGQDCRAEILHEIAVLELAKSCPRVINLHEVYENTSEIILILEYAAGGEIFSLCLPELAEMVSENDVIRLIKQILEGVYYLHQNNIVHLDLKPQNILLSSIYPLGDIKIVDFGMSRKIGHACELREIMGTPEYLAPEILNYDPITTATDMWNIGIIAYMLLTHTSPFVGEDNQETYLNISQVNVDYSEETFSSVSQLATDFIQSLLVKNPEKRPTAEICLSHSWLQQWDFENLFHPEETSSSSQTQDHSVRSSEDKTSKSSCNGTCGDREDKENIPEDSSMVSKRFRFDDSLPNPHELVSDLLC
Procedure, shortened: as §1

[3] = molecular target: T3, ~100 representative kinases (Homo sapiens, UniProt P22830); conditions: protein FECH; average of three replicates
T3 construct: Recombinant protein kinase domains with a concentration of 2 μM
T3 sequence (P22830 55-423): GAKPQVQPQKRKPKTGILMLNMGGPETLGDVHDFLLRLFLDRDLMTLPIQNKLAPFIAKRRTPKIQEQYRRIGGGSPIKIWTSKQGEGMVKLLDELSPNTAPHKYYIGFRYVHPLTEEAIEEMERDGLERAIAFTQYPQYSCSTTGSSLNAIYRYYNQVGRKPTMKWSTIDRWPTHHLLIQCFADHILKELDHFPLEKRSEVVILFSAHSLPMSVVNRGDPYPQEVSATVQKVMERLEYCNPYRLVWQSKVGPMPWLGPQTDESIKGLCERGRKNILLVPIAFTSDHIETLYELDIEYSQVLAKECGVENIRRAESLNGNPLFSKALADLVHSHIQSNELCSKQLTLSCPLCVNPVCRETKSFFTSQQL
Procedure, shortened: as §1

[4] = molecular target: T4, ~100 representative kinases (Homo sapiens, UniProt Q8TD08); conditions: protein MAPK15; average of three replicates
T4 construct: Recombinant protein kinase domains with a concentration of 2 μM
T4 sequence (Q8TD08 1-544): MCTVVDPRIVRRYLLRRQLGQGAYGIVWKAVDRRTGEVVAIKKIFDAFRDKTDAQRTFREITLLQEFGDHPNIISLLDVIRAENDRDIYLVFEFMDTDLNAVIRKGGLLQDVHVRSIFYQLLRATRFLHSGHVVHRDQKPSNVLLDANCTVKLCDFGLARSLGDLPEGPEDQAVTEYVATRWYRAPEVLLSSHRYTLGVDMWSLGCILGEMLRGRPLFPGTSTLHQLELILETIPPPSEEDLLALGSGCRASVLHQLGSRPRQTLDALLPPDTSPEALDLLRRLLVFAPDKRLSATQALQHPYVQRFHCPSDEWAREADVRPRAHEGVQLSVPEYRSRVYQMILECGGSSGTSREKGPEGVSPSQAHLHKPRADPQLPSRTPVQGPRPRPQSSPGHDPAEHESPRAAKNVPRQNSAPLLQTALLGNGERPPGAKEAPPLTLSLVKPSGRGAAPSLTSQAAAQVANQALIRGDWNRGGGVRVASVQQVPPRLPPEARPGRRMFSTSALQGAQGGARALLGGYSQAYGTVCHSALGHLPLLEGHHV
Procedure, shortened: as §1

[5] = molecular target: T5, ~100 representative kinases (Homo sapiens, UniProt Q9UKI8); conditions: Protein TLK1; DSF; average of three replicates
T5 construct: Recombinant protein kinase domains with a concentration of 2 μM
T5 sequence (Q9UKI8 1-766): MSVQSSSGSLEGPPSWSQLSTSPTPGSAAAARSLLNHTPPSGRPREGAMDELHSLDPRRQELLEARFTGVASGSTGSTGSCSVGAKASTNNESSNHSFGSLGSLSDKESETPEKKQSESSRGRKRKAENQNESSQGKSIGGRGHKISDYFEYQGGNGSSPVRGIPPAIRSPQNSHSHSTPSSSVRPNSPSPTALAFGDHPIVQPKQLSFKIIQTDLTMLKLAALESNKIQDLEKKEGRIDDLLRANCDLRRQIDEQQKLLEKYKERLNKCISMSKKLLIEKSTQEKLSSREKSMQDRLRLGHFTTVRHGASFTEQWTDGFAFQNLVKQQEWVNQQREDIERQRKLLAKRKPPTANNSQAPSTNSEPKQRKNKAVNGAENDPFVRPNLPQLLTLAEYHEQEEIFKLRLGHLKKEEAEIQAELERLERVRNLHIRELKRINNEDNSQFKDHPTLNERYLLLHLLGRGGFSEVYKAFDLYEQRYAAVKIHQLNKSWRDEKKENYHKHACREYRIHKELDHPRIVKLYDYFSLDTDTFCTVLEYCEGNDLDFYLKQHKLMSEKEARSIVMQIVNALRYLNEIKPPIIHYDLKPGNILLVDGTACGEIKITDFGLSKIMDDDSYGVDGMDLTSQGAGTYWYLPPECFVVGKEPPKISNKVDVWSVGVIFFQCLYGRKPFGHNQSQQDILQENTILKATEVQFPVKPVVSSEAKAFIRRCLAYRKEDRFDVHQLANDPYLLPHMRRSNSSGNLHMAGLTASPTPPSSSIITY
Procedure, shortened: as §1

[6] = molecular target: T6, ~100 representative kinases (Homo sapiens, UniProt O43293); conditions: Protein DAPK3; average of three replicates
T6 construct: Recombinant protein kinase domains with a concentration of 2 μM
Procedure, shortened: as §1

T1 sequence (P49841 whole entry, the tested form may be a part): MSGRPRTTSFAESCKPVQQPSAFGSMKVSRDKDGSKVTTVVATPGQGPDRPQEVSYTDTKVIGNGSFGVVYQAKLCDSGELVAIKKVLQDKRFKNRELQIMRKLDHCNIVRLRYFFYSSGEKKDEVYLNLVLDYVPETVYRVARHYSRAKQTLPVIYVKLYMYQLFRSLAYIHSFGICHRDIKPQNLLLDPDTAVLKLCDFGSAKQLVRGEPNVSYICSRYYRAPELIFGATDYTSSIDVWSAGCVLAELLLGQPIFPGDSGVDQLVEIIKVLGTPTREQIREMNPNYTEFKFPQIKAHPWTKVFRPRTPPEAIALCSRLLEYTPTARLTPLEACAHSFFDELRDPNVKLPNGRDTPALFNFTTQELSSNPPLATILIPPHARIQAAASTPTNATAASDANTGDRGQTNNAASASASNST
T6 sequence (O43293 whole entry, the tested form may be a part): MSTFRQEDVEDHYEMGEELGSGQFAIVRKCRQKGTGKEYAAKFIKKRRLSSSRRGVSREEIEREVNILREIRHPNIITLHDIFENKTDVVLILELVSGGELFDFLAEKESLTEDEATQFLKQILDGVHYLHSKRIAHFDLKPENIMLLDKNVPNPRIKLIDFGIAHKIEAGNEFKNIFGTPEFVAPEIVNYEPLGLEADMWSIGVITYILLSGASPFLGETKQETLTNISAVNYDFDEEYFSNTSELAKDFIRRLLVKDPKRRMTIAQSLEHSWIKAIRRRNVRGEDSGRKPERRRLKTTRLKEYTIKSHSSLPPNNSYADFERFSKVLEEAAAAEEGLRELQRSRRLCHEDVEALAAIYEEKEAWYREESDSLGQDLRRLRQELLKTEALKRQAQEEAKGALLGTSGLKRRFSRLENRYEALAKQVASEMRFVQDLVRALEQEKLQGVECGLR

Row | dTm [1] | dTm [2] | dTm [3] | dTm [5] | dTm [6] | SMILES | dTm [4]
1 | 7.56 K | 0.00 K | 0.09 K | 1.63 K | 3.21 K | O=C(Nc1cccc(-c2c[nH]c3ncnc(N4CCOCC4)c23)c1)C1(C(=O)Nc2ccc(F)c(Br)c2F)CC1 [Compound 26] | 5.05 K
2 | 7.13 K | 6.96 K | 1.70 K | -0.35 K | 8.69 K | O=C(Nc1cccc(-c2c[nH]c3ncnc(N4CCOCC4)c23)c1)C1(C(=O)Nc2ccc(F)c(F)c2)CC1 [Compound 17] | 10.37 K
3 | 1.43 K | 0.00 K | -0.79 K | 1.57 K | 3.02 K | O=C(Nc1cccc(-c2c[nH]c3ncnc(N4CCOCC4)c23)c1)C1(C(=O)Nc2cc(Br)c(F)cc2F)CC1 [Compound 25] | 3.06 K
4 | 3.16 K | 0.00 K | -2.87 K | 1.59 K | 4.42 K | O=C(Nc1cc(F)cc(Br)c1)C1(C(=O)Nc2cccc(-c3c[nH]c4ncnc(N5CCOCC5)c34)c2)CC1 [Compound 27] | 4.52 K

Further lines, the compound ahead of its results:

Row | SMILES | dTm [1] | dTm [2] | dTm [3] | dTm [5] | dTm [6] | dTm [4]
5 | COc1ccc(NC(=O)C2(C(=O)Nc3cccc(-c4c[nH]c5ncnc(N6CCOCC6)c45)c3)CC2)cc1 [Compound 16] | 2.09 K | 2.09 K | 0.0636 K | -1.11 K | 1.15 K | 2.17 K
6 | Cc1cc(F)ccc1NC(=O)C1(C(=O)Nc2cccc(-c3c[nH]c4ncnc(N5CCOCC5)c34)c2)CC1 [Compound 24] | 4.64 K | 2.37 K | 0.38 K | -0.75 K | 2.09 K | 4.07 K
7 | CCc1ccc(NC(=O)C2(C(=O)Nc3cccc(-c4c[nH]c5ncnc(N6CCOCC6)c45)c3)CC2)cc1 [Compound 15] | 5.12 K | 6.64 K | -8.07 K | -0.49 K | 3.77 K | 5.20 K
8 | COc1cc(NC(=O)C2(C(=O)Nc3cccc(-c4c[nH]c5ncnc(N6CCOCC6)c45)c3)CC2)ccc1F [Compound 21] | 8.20 K | 8.47 K | -0.18 K | -0.77 K | 7.62 K | 10.35 K
9 | Cc1ccc(C(=O)Nc2ccc(CN3CCN(C)CC3)c(C(F)(F)F)c2)cc1C#Cc1c[nH]c2ncnc(N3CCOCC3)c12 [Compound 1] | 1.72 K | 0.19 K | 0.00 K | 0.86 K | 0.53 K | 8.49 K
10 | CNC(=O)c1cc(Oc2ccc(NC(=O)Nc3cc(C(C)(C)C)nn3-c3ccc4ncccc4c3)c(F)c2)ccn1 [Rebastinib, reference compound] | 11.89 K | 6.81 K | -5.98 K | 0.57 K | 5.73 K | 14.70 K
11 | O=C(Nc1cccc(-c2c[nH]c3ncnc(N4CCOCC4)c23)c1)c1cccn(-c2ccc(F)cc2)c1=O [Compound 4] | 5.10 K | 6.49 K | 2.76 K | -0.72 K | 5.01 K | 7.29 K
12 | CC(C)(C)c1cccc(NC(=O)C2(C(=O)Nc3cccc(-c4c[nH]c5ncnc(N6CCOCC6)c45)c3)CC2)c1 [Compound 22] | 6.13 K | 0.00 K | -3.46 K | 0.35 K | 3.52 K | 6.32 K
13 | CCSc1nc(NC)c2c(-c3cccc(NC(=O)Nc4cc(C(C)(C)C)nn4-c4ccc(C)cc4)c3)c[nH]c2n1 [Compound 32] | -0.49 K | 6.20 K | -4.54 K | -0.57 K | 1.05 K | 3.18 K
